Experimental data published in ChEMBL document CHEMBL1148993, “UV-mediated genotoxicity of furanoquinoline and of certain tryptophan-derived alkaloids” (J Nat Prod, 1983).

Assays:
CHO [1] = assay: Genotoxicity in CHO cells assessed as chromosomal aberrations at 0.8 ppm after 60 mins in dark followed by 5 W/m'2 UV irradiation for 30 mins; format: toxicity, cell-based, Cricetulus griseus; conditions: chinese hamster, 0.5 h
CHO [2] = assay: Genotoxicity in CHO cells assessed as chromosomal aberrations at 25 ppm after 60 mins in dark followed by 5 W/m'2 UV irradiation for 30 mins; format: toxicity, cell-based, Cricetulus griseus; conditions: chinese hamster
CHO [3] = assay: Genotoxicity in CHO cells assessed as chromosomal aberrations at 6.2 ppm after 60 mins in dark followed by 5 W/m'2 UV irradiation for 30 mins; format: toxicity, cell-based, Cricetulus griseus; conditions: chinese hamster, 0.5 h
CHO [4] = assay: Genotoxicity in CHO cells assessed as chromosomal aberrations at 50 ppm after 90 mins in dark; format: toxicity, cell-based, Cricetulus griseus; conditions: chinese hamster, 1.5 h
CHO [5] = assay: Genotoxicity in CHO cells assessed as chromosomal aberrations at 3.1 ppm after 60 mins in dark followed by 5 W/m'2 UV irradiation for 30 mins; format: toxicity, cell-based, Cricetulus griseus; conditions: chinese hamster, 0.5 h
CHO [6] = assay: Genotoxicity in CHO cells assessed as chromosomal aberrations at 0.4 ppm after 60 mins in dark followed by 5 W/m'2 UV irradiation for 30 mins; format: toxicity, cell-based, Cricetulus griseus; conditions: chinese hamster, 0.5 h
CHO [7] = assay: Genotoxicity in CHO cells assessed as chromosomal aberrations at 12.5 ppm after 60 mins in dark followed by 5 W/m'2 UV irradiation for 30 mins; format: toxicity, cell-based, Cricetulus griseus; conditions: chinese hamster, 0.5 h
CHO [8] = assay: Genotoxicity in CHO cells assessed as chromosomal aberrations at 50 ppm after 60 mins in dark followed by 5 W/m'2 UV irradiation for 30 mins; format: toxicity, cell-based, Cricetulus griseus; conditions: chinese hamster
CHO [9] = assay: Genotoxicity against CHO cells after UV irradiation; format: toxicity, cell-based, Cricetulus griseus; conditions: chinese hamster
CHO [10] = assay: Genotoxicity against CHO cells; format: toxicity, cell-based, Cricetulus griseus; conditions: chinese hamster
Bacillus subtilis [11] = assay: Phototoxicity against Bacillus subtilis at 10 ug/disk in dark; format: functional; conditions: light or radiation study, read-out: IZ
Staphylococcus aureus [12] = assay: Phototoxicity against Staphylococcus aureus at 10 ug/disk in dark; format: functional; conditions: light or radiation study, read-out: IZ
Bacillus subtilis [13] = assay: Phototoxicity against Bacillus subtilis at 10 ug/disk after irradiation with W/m'2 UV light; format: functional; conditions: light or radiation study, read-out: IZ
Pseudomonas fluorescens [14] = assay: Phototoxicity against Pseudomonas fluorescens at 10 ug/disk in dark; format: functional; conditions: light or radiation study, read-out: IZ
CHO [15] = assay: Genotoxicity in CHO cells assessed as chromosomal aberrations at 0.3 ppm after 90 mins in dark; format: toxicity, cell-based, Cricetulus griseus; conditions: chinese hamster, 1.5 h
Staphylococcus aureus [16] = assay: Phototoxicity against Staphylococcus aureus at 10 ug/disk after irradiation with W/m'2 UV light; format: functional; conditions: light or radiation study, read-out: IZ
Pseudomonas aeruginosa [17] = assay: Phototoxicity against Pseudomonas aeruginosa at 10 ug/disk after irradiation with W/m'2 UV light; format: functional; conditions: light or radiation study, read-out: IZ
CHO [18] = assay: Genotoxicity in CHO cells assessed as chromosomal aberrations at 0.02 ppm after 60 mins in dark followed by 5 W/m'2 UV irradiation for 30 mins; format: toxicity, cell-based, Cricetulus griseus; conditions: chinese hamster, 0.5 h
Enterococcus faecalis [19] = assay: Phototoxicity against Streptococcus faecalis at 10 ug/disk in dark; format: functional; conditions: light or radiation study, read-out: IZ
Enterococcus faecalis [20] = assay: Phototoxicity against Streptococcus faecalis at 10 ug/disk after irradiation with W/m'2 UV light; format: functional; conditions: light or radiation study, read-out: IZ
Saccharomyces cerevisiae [21] = assay: Phototoxicity against Saccharomyces cerevisiae at 10 ug/disk after irradiation with W/m'2 UV light; format: functional; conditions: light or radiation study, read-out: IZ
CHO [22] = assay: Genotoxicity in CHO cells assessed as chromosomal aberrations at 0.04 ppm after 60 mins in dark followed by 5 W/m'2 UV irradiation for 30 mins; format: toxicity, cell-based, Cricetulus griseus; conditions: chinese hamster, 0.5 h
Escherichia coli [23] = assay: Phototoxicity against Escherichia coli at 10 ug/disk after irradiation with W/m'2 UV light; format: functional; conditions: light or radiation study, read-out: IZ
CHO [24] = assay: Genotoxicity in CHO cells assessed as chromosomal aberrations at 0.1 ppm after 60 mins in dark followed by 5 W/m'2 UV irradiation for 30 mins; format: toxicity, cell-based, Cricetulus griseus; conditions: chinese hamster, 0.5 h
Escherichia coli [25] = assay: Phototoxicity against Escherichia coli at 10 ug/disk in dark; format: functional; conditions: light or radiation study, read-out: IZ
Pseudomonas fluorescens [26] = assay: Phototoxicity against Pseudomonas fluorescens at 10 ug/disk after irradiation with W/m'2 UV light; format: functional; conditions: light or radiation study, read-out: IZ
Candida albicans [27] = assay: Phototoxicity against Candida albicans at 10 ug/disk in dark; format: functional; conditions: light or radiation study, read-out: IZ
Saccharomyces cerevisiae [28] = assay: Phototoxicity against Saccharomyces cerevisiae at 10 ug/disk in dark; format: functional; conditions: light or radiation study, read-out: IZ
CHO [29] = assay: Genotoxicity in CHO cells assessed as mitotic inhibition at 0.2 ppm after 60 mins in dark followed by 5 W/m'2 UV irradiation for 30 mins; format: toxicity, cell-based, Cricetulus griseus; conditions: chinese hamster, 0.5 h
Candida albicans [30] = assay: Phototoxicity against Candida albicans at 10 ug/disk after irradiation with W/m'2 UV light; format: functional; conditions: light or radiation study, read-out: IZ
Pseudomonas aeruginosa [31] = assay: Phototoxicity against Pseudomonas aeruginosa at 10 ug/disk in dark; format: functional; conditions: light or radiation study, read-out: IZ
[32] = (§1) Genotoxicity in CHO cells assessed as mitotic inhibition at 0.62 ppm after 60 mins in dark followed by 5 W/m'2 UV irradiation for 30 mins; format: toxicity, cell-based, Cricetulus griseus; conditions: chinese hamster, CHO cells; read-out: Activity
CHO [33] = assay: Genotoxicity in CHO cells assessed as chromosomal aberrations at 100 ppm after 60 mins in dark followed by 5 W/m'2 UV irradiation for 30 mins; format: toxicity, cell-based, Cricetulus griseus; conditions: chinese hamster, 0.5 h
CHO [34] = assay: Genotoxicity in CHO cells assessed as mitotic inhibition at 6.3 ppm after 60 mins in dark followed by 5 W/m'2 UV irradiation for 30 mins; format: toxicity, cell-based, Cricetulus griseus; conditions: chinese hamster, 0.5 h
CHO [35] = assay: Phototoxicity against CHO cells assessed as mitotic inhibition at 12 ppm after UV irradiation; format: cell-based, Cricetulus griseus; conditions: chinese hamster
CHO [36] = assay: Phototoxicity against CHO cells at 25 ppm; format: cell-based, Cricetulus griseus; conditions: chinese hamster
CHO [37] = assay: Genotoxicity in CHO cells assessed as chromosomal aberrations at 100 ppm after 90 mins in dark; format: toxicity, cell-based, Cricetulus griseus; conditions: chinese hamster, 1.5 h
CHO [38] = assay: as §1; format: toxicity, cell-based, Cricetulus griseus; conditions: chinese hamster, cho, 0.5 h
CHO [39] = assay: Genotoxicity in CHO cells assessed as mitotic inhibition at 1.25 ppm after 60 mins in dark followed by 5 W/m'2 UV irradiation for 30 mins; format: toxicity, cell-based, Cricetulus griseus; conditions: chinese hamster, 0.5 h

## COc1ccc2c(OC)c3ccoc3nc2c1OC [SKIMMIANINE]
CHO [1]
  Activity: 10.9%
CHO [2]
  Activity: 50%
CHO [3]
  Activity: 59.9%
CHO [4]
  Activity: 0%
CHO [5]
  Activity: 45%
CHO [6]
  Activity: 3%
CHO [7]
  Activity: 61.9%
CHO [8]
  Activity: Toxic

## CC[C@]1(O)C[C@@H]2CN(CCc3c([nH]c4ccccc34)[C@@](C(=O)OC)(c3cc4c(cc3OC)N(C)[C@H]3[C@@](O)(C(=O)OC)[C@H](OC(C)=O)[C@]5(CC)C=CCN6CC[C@]43[C@@H]65)C2)C1 [VINBLASTINE]
CHO [9]
  Activity: Not Active
CHO [10]
  Activity: Not Active

## COc1c2occc2cc2ccc(=O)oc12 [METHOXSALEN]
Bacillus subtilis [11]
  zone of inhibition at 10 µg/disc: 0 mm
Staphylococcus aureus [12]
  zone of inhibition at 10 µg/disc: 0 mm
Bacillus subtilis [13]
  zone of inhibition at 10 µg/disc: 14 mm
Pseudomonas fluorescens [14]
  zone of inhibition at 10 µg/disc: 0 mm
CHO [15]
  Activity: 0%
Staphylococcus aureus [16]
  zone of inhibition at 10 µg/disc: 18 mm
Pseudomonas aeruginosa [17]
  zone of inhibition at 10 µg/disc: 0 mm
CHO [18]
  Activity: 7.1%
Enterococcus faecalis [19]
  zone of inhibition at 10 µg/disc: 0 mm
Enterococcus faecalis [20]
  zone of inhibition at 10 µg/disc: 14 mm
Saccharomyces cerevisiae [21]
  zone of inhibition at 10 µg/disc: 19 mm
CHO [22]
  Activity: 38.8%
Escherichia coli [23]
  zone of inhibition at 10 µg/disc: 14 mm
CHO [24]
  Activity: 63.6%
Escherichia coli [25]
  zone of inhibition at 10 µg/disc: 0 mm
Pseudomonas fluorescens [26]
  zone of inhibition at 10 µg/disc: 0 mm
Candida albicans [27]
  zone of inhibition at 10 µg/disc: 0 mm
Saccharomyces cerevisiae [28]
  zone of inhibition at 10 µg/disc: 0 mm
CHO [29]
  Activity: Active
Candida albicans [30]
  zone of inhibition at 10 µg/disc: 14 mm
Pseudomonas aeruginosa [31]
  zone of inhibition at 10 µg/disc: 0 mm

## c1ccc2c(c1)[nH]c1cnccc12 [NORHARMANE]
[32]
  inhibition at 0.5 h, 0.62 ppm: 0%

## C=C[C@H]1C[N@@]2CC[C@H]1C[C@H]2[C@H](O)c1ccnc2ccc(OC)cc12 [QUININE]
CHO [2]
  Activity: Toxic
CHO [7]
  Activity: Toxic
CHO [33]
  Activity: Toxic
CHO [34]
  Activity: Active
CHO [35]
  Activity: Active
CHO [36]
  Activity: Active
CHO [8]
  Activity: Toxic
CHO [37]
  Activity: 0%

## COc1ccc2c3c([nH]c2c1)C(C)=NCC3 [HARMALINE]
CHO [38]
  Activity: Active
CHO [39]
  Activity: Active
